The values below come from ChEMBL document CHEMBL1201862, “PubChem BioAssay data set” (2004).

Structures are written as SMILES. Activity calls are given as the source filed them.

Test [1] can be described thus: reduced cellular PGC1a acetyl-lysine signal – cell-based, cherry-picked samples, dose response (AID 720514).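 Further: potency may reflect raised or lowered acetylation signal.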 The format is functional.
Test [2] addresses T1, Mannose-6-phosphate isomerase (Homo sapiens, UniProt P34949).
T1 sequence (P34949 whole entry): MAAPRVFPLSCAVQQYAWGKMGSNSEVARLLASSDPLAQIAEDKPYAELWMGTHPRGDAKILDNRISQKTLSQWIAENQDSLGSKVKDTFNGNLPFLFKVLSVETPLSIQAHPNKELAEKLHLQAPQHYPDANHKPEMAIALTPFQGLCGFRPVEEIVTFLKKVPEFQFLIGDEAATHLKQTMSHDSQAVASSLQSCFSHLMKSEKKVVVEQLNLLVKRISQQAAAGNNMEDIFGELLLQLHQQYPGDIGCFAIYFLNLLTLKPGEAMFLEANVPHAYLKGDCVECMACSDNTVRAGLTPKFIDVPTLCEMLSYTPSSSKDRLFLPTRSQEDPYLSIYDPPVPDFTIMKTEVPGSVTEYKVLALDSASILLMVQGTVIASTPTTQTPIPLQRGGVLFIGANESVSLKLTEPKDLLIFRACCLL
Briefly: MPI inhibition at elevated mannose 6-phosphate – biochemical, fluorescence intensity, high mannose 6-phosphate, primary screen (AID 1220).

The target in another test is Protein Tat (Human immunodeficiency virus type 1 group M subtype B (isolate HXB2)(HIV-1), UniProt P04608). The format is functional.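 Further: tat binding to TAR RNA read out by fluorescence polarization.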
Test [3] concerns the target DNA damage-inducible transcript 3 protein (Mus musculus, UniProt P35639). The format is functional, Cricetulus griseus.
Another test has as its target SUMO-activating enzyme (Homo sapiens, UniProt Q9UBT2). Briefly: blockers of UBC9-mediated SUMO conjugation – biochemical, AlphaScreen, SUMOylation inhibitor project, confirmation (AID 2018). The class given is functional.
Test [4] addresses T1, Mannose-6-phosphate isomerase. Briefly: MPI enzyme activity inhibition – biochemical, fluorescence intensity, coupled assay, primary screen (AID 1209).
Test [5] in a line: general mammalian cell viability loss – inhibitor set, cherry-pick, set 2, cytotoxicity control for miR-122 modulator project, dose response (AID 720697). The class given is functional, cell-based.
The target in a further test is Paired box protein Pax-8 (Homo sapiens, UniProt Q06710). Briefly: PAX8 transcriptional activity inhibition in RMG-I – RMG-I cells, luciferase, cherry-pick, dose response (AID 687027).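 Further: luciferase reporter driven by Pax8 target thyroperoxidase promoter measured by SteadyGlo luminescence.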 The format is functional, cell-based.
Test [6] can be described thus: activation of miR-122 Renilla sensor silencing – cell-based, Huh7 psiCHECK-miR122, Renilla luciferase, cherry-picked, dose response (AID 651956).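 Further: huh7 hepatoma cells stably carrying a psiCHECK-2 miR-122 sensor plasmid; renilla luciferase signal reporting endogenous miR-122 activity after 48 h compound exposure.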 The class given is functional.
A short description of test [7]: general cell-killing toxicity readout – plate reader, dry powder samples, cytotoxicity control for PAX8 inhibitor project, dose response (AID 743021). The class given is functional, cell-based.
Test [8] can be described thus: general mammalian cell viability loss – activator set, cherry-pick, cytotoxicity control for miR-122 modulator project, dose response (AID 720690).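 Further: HEK293T human cells scored for general mammalian cytotoxicity.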 The format is functional, cell-based.
The next test deals with Vero. Briefly: cells. The format is functional. As to conditions: Chlorocebus sabaeus.
The next test has as its target Troponin, cardiac muscle (Homo sapiens, UniProt P19429+P45379+P63316). Briefly: Fluorescence-based biochemical high throughput dose response assay for activators of the calcium sensitivity of cardiac Regulated Thin Filaments (RTF). [Related pubchem assays (depositor defined):AID493008, AID493018, AID504382, AID504383]. The class given is protein-complex assay.
Test [9] can be described thus: Luminescence Cell-Based Dose Retest to Confirm Inhibitors of Cancer Stem Cells. [Related pubchem assays (depositor defined):AID2717, AID2721]. The class given is functional. As to conditions: Homo sapiens.
For another test, the system named is HT-1080. Briefly: HT1080 cell viability loss – fluorescence readout (AID 620). The format is functional, cell-based. As to conditions: Homo sapiens.
In test [10] the test system is HEK293. Briefly: cells. The format is functional, cell-based. As to conditions: Homo sapiens.
Test [11] has as its system HEK293. Briefly: inhibition of NOD1-driven NF-kB reporter – cell-based, luminescence, uHTS, primary screen (AID 1578). The class given is functional. The note with it: Homo sapiens.
The subject of test [12] is HEK293. Briefly: cells. As to conditions: Homo sapiens. The format is functional, cell-based. This is another data set of the same source.
Test [13] addresses COUP transcription factor 2 (Homo sapiens, UniProt P24468). Briefly: Luminescence-based cell-based high throughput dose response assay to identify inhibitors of COUP-TFII (NR2F2). The format is functional.
Test [14] has as its system HEK293. Briefly: cells. The format is functional, cell-based. As to conditions: Homo sapiens. The source holds these as a separate data set.
Test [15] concerns the target Nucleotide-binding oligomerization domain-containing protein 2 (Homo sapiens, UniProt Q9HC29). Briefly: inhibition of NOD2-driven NF-kB reporter – cell-based, luminescence, uHTS, HEK293 (AID 1566). The class given is functional.
Test [16] deals with HEK293. Briefly: NOD2 signaling inhibitors in MDP-stimulated cells, cell-based, uHTS, luminescence (AID 2001). The class given is functional. As to conditions: Homo sapiens.
The target of test [17] is T2, Luciferin 4-monooxygenase (Photinus pyralis, UniProt P08659). Briefly: Counter Screen for Luciferase-based Assay Positives. [Related pubchem assays: 620, 618, 411 ]. In general terms: A counterscreen serves to expose hits that act by an unwanted route or on another target.
Test [18] can be described thus: cells. As to conditions: HEK293.
Test [19] in a line: NIH3T3 cell viability loss – ATP luminescence, mouse fibroblasts, counter-screen, dose response (AID 2010).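 Further: cells exposed to compound for about 90 hours before reading.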 The class given is functional, cell-based.
A short description of test [20]: Trypanosoma cruzi growth suppression in host cells – NIH3T3 host cells, beta-gal luminescence, confirmation (AID 2044).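 Further: intracellular parasites grown in NIH/3T3 mouse fibroblasts as host cells; luminescent beta-galactosidase reporter signal from transgenic T. cruzi replicating inside host cells; inhibitors lower the luminescence signal.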 The class given is functional, cell-based.
Test [21] can be described thus: cells. As to conditions: A549.
In a further test the target is Major prion protein (Homo sapiens, UniProt P04156). The format is functional, cell-based.
Test [22] deals with T3, Polyadenylate-binding protein 1 (Homo sapiens, UniProt P11940). Briefly: MLLE binding blockers, Cy5 peptide tracer – biochemical, fluorescence polarization, Cy5-PAM2 peptide, secondary, miRNA deadenylation inhibitor project, dose response (AID 602260). The format is functional. As to conditions: read-out: IC50_Mean.
The target of test [23] is T3, Polyadenylate-binding protein 1. Briefly: MLLE domain peptide-binding blockers, IC50 – biochemical, fluorescence polarization, FITC-PAM2 peptide, dose response (AID 602259). The format is functional. The note with it: read-out: IC50_Mean. (In general: Fluorescence polarisation rises when a labelled molecule tumbles more slowly, as on binding a larger partner.)
A short description of test [24]: cells.
Test [25] has as its target T4, Heat shock factor protein 1 (Mus musculus, UniProt P38532).
T4 sequence (P38532 whole entry): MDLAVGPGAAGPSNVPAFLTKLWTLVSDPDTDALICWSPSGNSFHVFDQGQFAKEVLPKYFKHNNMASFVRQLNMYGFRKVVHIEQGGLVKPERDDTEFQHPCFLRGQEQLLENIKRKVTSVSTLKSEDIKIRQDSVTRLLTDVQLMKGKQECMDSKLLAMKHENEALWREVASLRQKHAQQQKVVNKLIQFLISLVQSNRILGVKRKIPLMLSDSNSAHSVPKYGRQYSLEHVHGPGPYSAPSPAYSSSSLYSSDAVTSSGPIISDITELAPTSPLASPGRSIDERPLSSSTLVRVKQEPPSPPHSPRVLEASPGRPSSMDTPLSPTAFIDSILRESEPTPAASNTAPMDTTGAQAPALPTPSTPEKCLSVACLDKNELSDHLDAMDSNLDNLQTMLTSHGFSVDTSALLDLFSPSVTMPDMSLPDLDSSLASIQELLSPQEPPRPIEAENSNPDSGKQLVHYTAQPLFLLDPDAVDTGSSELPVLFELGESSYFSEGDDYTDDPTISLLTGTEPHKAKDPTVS
Briefly: decrease of HSF1-responsive luciferase luminescence – cell-based, NIH3T3, dose retest, confirmation (AID 2382).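 Further: NIH3T3 fibroblasts with HSF1-driven luciferase reporter stressed by proteasome inhibitor MG132; luminescence from HSF1-driven luciferase expression after 8 hours of MG132 stress.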 The class given is functional.

A short description of test [26]: blockade of melanocortin 4 receptor signaling – cell-based, plate reader, cherry pick, counter-screen for LGR2 antagonist project, dose response (AID 743444).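 Further: transfected HEK 293 cells stimulated with alpha-MSH peptide; potency of inhibitors of the alpha-MSH evoked signal.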 The class given is functional.
A short description of test [27]: blockers of bursicon-stimulated LGR2 cAMP reporter – cell-based, HEK293, CRE-luciferase reporter, cherry pick, set 2, dose response (AID 743343).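 Further: transfected cells were stimulated with diluted bursicon conditioned medium after compound addition.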 The class given is functional. For orientation: In a reporter assay the amount or activity of a reporter protein is the signal.
A short description of test [28]: Luminescence-based counterscreen assay for KLF5 inhibitors: dose response cell-based high throughput screening assay to identify cytotoxic compounds using the IEC-6 intestinal epithelial cell line. [Related pubchem assays: 1700 (Primary screen.), 1834 (Confirmation screen.), 1858 (Summary AID.), 1905 (Counterscreen.)]. The format is functional.
Test [29] deals with T2, Luciferin 4-monooxygenase. Briefly: inhibition of purified Photinus pyralis luciferase – biochemical, luminescence, dose response (AID 1891).
Test [30] is described as follows: cells. The class given is functional, cell-based.
A short description of test [31]: Luminescence Cell-Based Dose Confirmation HTS to Identify Inhibitors of Platelet Dense Granule Release. [Related pubchem assays: 1663 (Primary HTS), 1678 (Summary of Project)]. The class given is functional.
Test [32] can be described thus: alpha-synuclein stem-loop translation blockers – luminescence, H4 neuroglioblastoma cells, dose confirmation, confirmation (AID 2454).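 Further: H4 neuroglioblastoma cells carrying an alpha-synuclein 5'UTR luciferase reporter; potency for inhibition of the luciferase signal.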 The format is functional, cell-based.
Test [33] is described as follows: toxicity toward HepG2 liver cells – cell-based, plate reader, cherry-pick, antagonist series, cytotoxicity control, dose response (AID 743416). The format is functional.
The nature of test [34]: luciferase reporter signal reduction – luminescence, H4-C neuroglioblastoma cells, dose response (AID 2458).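 Further: H4 neuroglioblastoma cells stably carrying a luciferase reporter gene fusion.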 The class given is functional, cell-based.
The nature of test [35]: Luminescence Cell-Based Dose Response HTS to Identify Inhibitors of 5'UTR Stem-Loop Driven Prion Protein mRNA Translation in H4 Neuroglioblastoma Cells. [Related pubchem assays: 1827 (Project Summary), 1813 (Primary HTS)]. The class given is functional.
Test [36] can be described thus: A549 cell cytotoxicity, dose response, cytotoxicity control, plate reader, cherry-pick, antagonist series (AID 743412). The class given is functional, cell-based.
Test [37] can be described thus: alpha-synuclein stem-loop luciferase translation blockers – H4 neuroglioma cells, luminescence, confirmation (AID 1988). The class given is functional, cell-based.
Test [38] is described as follows: luciferase reporter signal suppression in cells – H4 neuroglioma cells, luminescence, dose response (AID 1990). The class given is functional, cell-based.
The nature of test [39]: viability loss in HEK293 cells – cell-based, plate reader, cherry-picked samples, cytotoxicity control, dose response (AID 743446). The format is functional.

As a reminder, the AC50 is the concentration giving half of the maximal activity seen. In the case of `CC(=O)c1ccc(Nc2cc(C)nc3ccc(C)cc23)cc1`, in test [1], the AC50 was 6.09 µM (active).

On to `CC1=Nc2nc3c(c4c(C#N)c(N5CCCCC5)nc(c24)N1)CC(=O)N3c1ccc(C(C)C)cc1.CN(C)C=O`, for which the IC50 was > 50 µM (not active) in test [2], > 100 µM (active) at Protein Tat, 11.7 µM (active) on SUMO-activating enzyme and > 50 µM (not active) in test [4]. Besides, in [3], the “Absolute IC50 (CHOP)” value was determined as 10 µM.

One may read the CC50 as the concentration that lowers cell viability or growth by half. One may read the EC50 as the concentration giving half of the maximal effect. As for `Cn1ncc2c(ON=C(N)c3ccc(C(F)(F)F)cc3)ncnc21`, the AC50 in test [5] is 9.49 µM (active); at Paired box protein Pax-8, 6.71 µM (active); in [6], 20.8 µM (active); in test [1], 4.71 µM (active); in test [7], 66.7 µM (active); in test [8] it was 14 µM (active). Further, the CC50 in the test on Vero was 8.98 µM (active). The EC50 at Troponin, cardiac muscle was > 71.5 µM (inactive).

In the case of `CC(=O)Nc1ccc(SCC(=O)c2cc(C)n(Cc3cccs3)c2C)cc1`, the AC50 in [9] was 1.77 µM (active). The EC50 in the test with HT-1080 is > 50 µM (not active); in the test with HEK293 [11] it was > 20 µM (inactive); in test [15], > 20 µM (inactive); in test [17], 3.59 µM (active). For the same molecule, the IC50 is > 20 µM (inactive) with HEK293 [10]; > 20 µM (inactive) in the test with HEK293 [12]; 23.6 µM (inactive) in test [13]; > 20 µM (inactive) in the test with HEK293 [14]; > 20 µM (inactive) in the test on HEK293 [16].

As to `Cc1ccc2nc3c(cc(C(N)=S)c(=N)n3CCCOC(C)C)c(=O)n2c1`, the figures for the AC50 in “cells [18]” and in the test “cells [21]” were > 52 µM (inactive) and 33.9 µM (active), respectively. Moreover, the EC50 in [19] is 9.45 µM (active); in test [20], 4.43 µM (active).

With `O=C(CSc1nc(Cc2ccccc2)nc2ccccc12)Nc1ccc2c(c1)OCCO2`, the IC50 is 5.39 µM (active) on Major prion protein, > 66 µM (inactive) in [22], > 66 µM (inactive) in test [23] and 45.6 µM (inactive) in “cells [24]”.

For `CCCS(=O)(=O)c1cnc(C2COc3ccccc3O2)nc1N` (configuration not stated), the EC50 is < 0.16 µM (active) in test [25]; 14.4 µM (active) in test [29]; > 12 µM (inconclusive) in “cells [30]”; 3.05 µM (active) in test [31]; 1.06 µM (active) in test [32]; 0.862 µM (active) in test [34]. Moreover, the EC50 in test [35] is 0.132 µM (active); in [37], < 0.1 µM (active); in test [38], 0.197 µM (active). The AC50 is 1.2 µM (active) in test [26]; 1.45 µM (active) in test [27]; 40.1 µM (active) in test [33]; 34.2 µM (active) in test [36]; 26.6 µM (active) in [39]. The IC50 in test [28] is > 39.8 µM (not active).
